Measured values taken from US10004701B2, “Methods and compositions for treating infection” (UNIVERSITY OF ROCHESTER, priority 2012, dated 2018).
Where a name gives a salt, the structure may show the parent alone. Read-outs that look alike come from different tables or passages of the source.

How the values were obtained:
Assay in all cases: AK assay 384-well format, Prestwick library screening
[1] = system: E. faecium; type: cell-based, Enterococcus faecium; conditions: for fold induction at 50 µM: Enterococcus faecium, 3 h
[2] = system: S. aureus strain USA300-0114; type: cell-based, Staphylococcus aureus; conditions: for fold induction at 50 µM: Staphylococcus aureus, USA300, 3 h
[3] = system: K. pneumoniae; type: cell-based, Klebsiella pneumoniae; conditions: for fold induction at 50 µM: Klebsiella pneumoniae, 3 h
[4] = system: A. baumannii strain 98-37-09; type: cell-based, Acinetobacter baumannii; conditions: for fold induction at 50 µM: Acinetobacter baumannii, 983709, 3 h
[5] = system: P. aeruginosa; type: cell-based, Pseudomonas aeruginosa; conditions: for fold induction at 50 µM: Pseudomonas aeruginosa, 3 h
[6] = system: E. cloacae; type: cell-based, Enterobacter cloacae; conditions: for fold induction at 50 µM: Enterobacter cloacae, 3 h
[7] = system: E. coli; type: cell-based, Escherichia coli; conditions: for fold induction at 50 µM: Escherichia coli, 3 h
[8] = 50 μM final drug concentration, planktonic, […], read-out: AK-based Prestwick Library Screening Results, E. faecium (fold increase in extracellular AK activity)
[9] = 50 μM final drug concentration, planktonic, […], read-out: AK-based Prestwick Library Screening Results, S. aureus (fold increase in extracellular AK activity)
[10] = 50 μM final drug concentration, planktonic, […], read-out: AK-based Prestwick Library Screening Results, K. pneumoniae (fold increase in extracellular AK activity)
[11] = 50 μM final drug concentration, planktonic, […], read-out: AK-based Prestwick Library Screening Results, A. baumannii (fold increase in extracellular AK activity)
[12] = 50 μM final drug concentration, planktonic, […], read-out: AK-based Prestwick Library Screening Results, P. aeruginosa (fold increase in extracellular AK activity)
[13] = 50 μM final drug concentration, planktonic, […], read-out: AK-based Prestwick Library Screening Results, E. cloacae (fold increase in extracellular AK activity)
[14] = 50 μM final drug concentration, planktonic, […], read-out: AK-based Prestwick Library Screening Results, E. coli (fold increase in extracellular AK activity)
[15] = planktonic E. faecium, 50 μM final drug concentration, 384-well, cutoff for positive-scoring molecules 3-fold increase, read-out: AK-based Prestwick Library Screening Results: E. faecium (increase in extracellular AK activity)
[16] = planktonic S. aureus, 50 μM final drug concentration, 384-well, cutoff for positive-scoring molecules 3-fold increase, read-out: AK-based Prestwick Library Screening Results: S. aureus (increase in extracellular AK activity)
[17] = planktonic K. pneumoniae, 50 μM final drug concentration, 384-well, cutoff for positive-scoring molecules 3-fold increase, read-out: AK-based Prestwick Library Screening Results: K. pneumoniae (increase in extracellular AK activity)
[18] = planktonic A. baumannii, 50 μM final drug concentration, 384-well, cutoff for positive-scoring molecules 3-fold increase, read-out: AK-based Prestwick Library Screening Results: A. baumannii (increase in extracellular AK activity)
[19] = planktonic P. aeruginosa, 50 μM final drug concentration, 384-well, cutoff for positive-scoring molecules 3-fold increase, read-out: AK-based Prestwick Library Screening Results: P. aeruginosa (increase in extracellular AK activity)
[20] = planktonic E. cloacae, 50 μM final drug concentration, 384-well, cutoff for positive-scoring molecules 3-fold increase, read-out: AK-based Prestwick Library Screening Results: E. cloacae (increase in extracellular AK activity)
[21] = planktonic E. coli, 50 μM final drug concentration, 384-well, cutoff for positive-scoring molecules 3-fold increase, read-out: AK-based Prestwick Library Screening Results: E. coli (increase in extracellular AK activity)

COc1c(O[C@@H]2O[C@H](CO)[C@@H](O)[C@H](O)[C@H]2O)cc2c(c1OC)-c1ccc(SC)c(=O)cc1[C@@H](NC(C)=O)CC2 [Thiocolchicoside]
fold induction at 50 µM [1, 8]: 1.1
fold induction at 50 µM [2, 9]: 1.2
fold induction at 50 µM [3, 10]: 0.8
fold induction at 50 µM [4, 11]: 0.9
fold induction at 50 µM [5, 12]: 1
fold induction at 50 µM [6, 13]: 1.7
fold induction at 50 µM [7, 14]: 1

S=C(NC1CCCCC1)N1CCC(c2cnc[nH]2)CC1 [Thioperamide maleate]
fold induction at 50 µM ([1]; 50 μM final drug concentration, cutoff for positive-scoring molecules 3-fold increase, read-out: AK-based Prestwick Library Screening Results, E. faecium (fold increase in extracellular AK activity)): 1
fold induction at 50 µM ([2]; 50 μM final drug concentration, cutoff for positive-scoring molecules 3-fold increase, read-out: AK-based Prestwick Library Screening Results, S. aureus (fold increase in extracellular AK activity)): 1.1
fold induction at 50 µM ([3]; 50 μM final drug concentration, cutoff for positive-scoring molecules 3-fold increase, read-out: AK-based Prestwick Library Screening Results, K. pneumoniae (fold increase in extracellular AK activity)): 1
fold induction at 50 µM ([4]; 50 μM final drug concentration, cutoff for positive-scoring molecules 3-fold increase, read-out: AK-based Prestwick Library Screening Results, A. baumannii (fold increase in extracellular AK activity)): 1
fold induction at 50 µM ([5]; 50 μM final drug concentration, cutoff for positive-scoring molecules 3-fold increase, read-out: AK-based Prestwick Library Screening Results, P. aeruginosa (fold increase in extracellular AK activity)): 1.3
fold induction at 50 µM ([6]; 50 μM final drug concentration, cutoff for positive-scoring molecules 3-fold increase, read-out: AK-based Prestwick Library Screening Results, E. cloacae (fold increase in extracellular AK activity)): 1.6
fold induction at 50 µM ([7]; 50 μM final drug concentration, […], read-out: AK-based Prestwick Library Screening Results, E. coli (fold increase in extracellular AK activity)): 1.2

CSc1ccc2c(c1)N(CCC1CCCCN1C)c1ccccc1S2 (stereo not drawn) [Thioridazine hydrochloride]
fold induction at 50 µM [1, 15]: 1
fold induction at 50 µM [2, 16]: 1.3
fold induction at 50 µM [3, 17]: 1.3
fold induction at 50 µM [4, 18]: 2.9
fold induction at 50 µM [5, 19]: 1.1
fold induction at 50 µM [6, 20]: 1.5
fold induction at 50 µM [7, 21]: 1.6

O=C(O)CNC(=O)C(CS)Cc1ccccc1 (stereo not drawn) [Thiorphan]
fold induction at 50 µM ([1]; read-out: AK-based Prestwick Library Screening Results, E. faecium (fold increase in extracellular AK activity)): 1
fold induction at 50 µM ([2]; read-out: AK-based Prestwick Library Screening Results, S. aureus (fold increase in extracellular AK activity)): 1.3
fold induction at 50 µM ([3]; read-out: AK-based Prestwick Library Screening Results, K. pneumoniae (fold increase in extracellular AK activity)): 1.3
fold induction at 50 µM ([4]; read-out: AK-based Prestwick Library Screening Results, A. baumannii (fold increase in extracellular AK activity)): 1.2
fold induction at 50 µM ([5]; read-out: AK-based Prestwick Library Screening Results, P. aeruginosa (fold increase in extracellular AK activity)): 1.2
fold induction at 50 µM ([6]; read-out: AK-based Prestwick Library Screening Results, E. cloacae (fold increase in extracellular AK activity)): 1.5
fold induction at 50 µM ([7]; read-out: AK-based Prestwick Library Screening Results, E. coli (fold increase in extracellular AK activity)): 1.2

C=C(NC(=O)C(=C)NC(=O)c1csc(C2=N[C@@H]3c4csc(n4)[C@H]4NC(=O)c5csc(n5)[C@H]([C@](C)(O)[C@@H](C)O)NC(=O)[C@H]5CSC(=N5)/C(=C/C)NC(=O)[C@H]([C@@H](C)O)NC(=O)c5csc(n5)[C@]3(CC2)NC(=O)[C@H](C)NC(=O)C(=C)NC(=O)[C@H](C)NC(=O)[C@H]([C@@H](C)CC)N[C@@H]2C=Cc3c([C@H](C)O)cc(nc3[C@H]2O)C(=O)O[C@@H]4C)n1)C(N)=O [Thiostrepton]
fold induction at 50 µM [1, 8]: 1
fold induction at 50 µM [2, 9]: 0.4
fold induction at 50 µM [3, 10]: 1
fold induction at 50 µM [4, 11]: 1.1
fold induction at 50 µM [5, 12]: 0.9
fold induction at 50 µM [6, 13]: 1.4
fold induction at 50 µM [7, 14]: 1.3

N[C@@H](Cc1cc(I)c(Oc2cc(I)c(O)c(I)c2)c(I)c1)C(=O)O [Thyroxine (L)]
AK-based Prestwick Library Screening Results: E. faecium (increase in extracellular AK activity) ([1]; planktonic E. faecium, 50 μM final drug concentration, 384-well, […]): 1.0
AK-based Prestwick Library Screening Results: S. aureus (increase in extracellular AK activity) ([2]; planktonic S. aureus, 50 μM final drug concentration, 384-well, […]): 0.2
AK-based Prestwick Library Screening Results: K. pneumoniae (increase in extracellular AK activity) ([3]; planktonic K. pneumoniae, 50 μM final drug concentration, 384-well, […]): 0.4
AK-based Prestwick Library Screening Results: A. baumannii (increase in extracellular AK activity) ([4]; planktonic A. baumannii, 50 μM final drug concentration, 384-well, […]): 0.4
AK-based Prestwick Library Screening Results: P. aeruginosa (increase in extracellular AK activity) ([5]; planktonic P. aeruginosa, 50 μM final drug concentration, 384-well, […]): 0.4
AK-based Prestwick Library Screening Results: E. cloacae (increase in extracellular AK activity) ([6]; planktonic E. cloacae, 50 μM final drug concentration, 384-well, […]): 0.3
AK-based Prestwick Library Screening Results: E. coli (increase in extracellular AK activity) ([7]; planktonic E. coli, 50 μM final drug concentration, 384-well, […]): 0.5

c1ccc2[nH]c(-c3cscn3)nc2c1 [Tiabendazole]
fold induction at 50 µM ([1]; 50 μM final drug concentration, planktonic, cutoff for positive 3-fold increase, read-out: AK-based Prestwick Library Screening Results, E. faecium (fold increase in extracellular AK activity)): 0.5
fold induction at 50 µM ([2]; 50 μM final drug concentration, planktonic, cutoff for positive 3-fold increase, read-out: AK-based Prestwick Library Screening Results, S. aureus (fold increase in extracellular AK activity)): 0.6
fold induction at 50 µM ([3]; 50 μM final drug concentration, planktonic, cutoff for positive 3-fold increase, read-out: AK-based Prestwick Library Screening Results, K. pneumoniae (fold increase in extracellular AK activity)): 0.4
fold induction at 50 µM ([4]; 50 μM final drug concentration, planktonic, cutoff for positive 3-fold increase, read-out: AK-based Prestwick Library Screening Results, A. baumannii (fold increase in extracellular AK activity)): 0.5
fold induction at 50 µM ([5]; 50 μM final drug concentration, planktonic, cutoff for positive 3-fold increase, read-out: AK-based Prestwick Library Screening Results, P. aeruginosa (fold increase in extracellular AK activity)): 0.6
fold induction at 50 µM ([6]; 50 μM final drug concentration, planktonic, cutoff for positive 3-fold increase, read-out: AK-based Prestwick Library Screening Results, E. cloacae (fold increase in extracellular AK activity)): 1.3
fold induction at 50 µM ([7]; 50 μM final drug concentration, planktonic, cutoff for positive 3-fold increase, read-out: AK-based Prestwick Library Screening Results, E. coli (fold increase in extracellular AK activity)): 0.6

CCN(CC)CCNC(=O)c1cc(S(C)(=O)=O)ccc1OC [Tiapride hydrochloride]
fold induction at 50 µM [1, 15]: 1.1
fold induction at 50 µM [2, 16]: 1
fold induction at 50 µM [3, 17]: 0.9
fold induction at 50 µM [4, 18]: 1.1
fold induction at 50 µM [5, 19]: 1.2
fold induction at 50 µM [6, 20]: 1.5
fold induction at 50 µM [7, 21]: 1.4

CC(C(=O)O)c1ccc(C(=O)c2ccccc2)s1 (stereo not drawn) [Tiaprofenic acid]
fold induction at 50 µM ([1]; planktonic E. faecium, 50 μM final drug concentration, cutoff for positive-scoring molecules 3-fold increase, read-out: AK-based Prestwick Library Screening Results, E. faecium (increase in extracellular AK activity)): 0.8
fold induction at 50 µM ([2]; planktonic S. aureus, 50 μM final drug concentration, cutoff for positive-scoring molecules 3-fold increase, read-out: AK-based Prestwick Library Screening Results, S. aureus (increase in extracellular AK activity)): 0.5
fold induction at 50 µM ([3]; planktonic K. pneumoniae, 50 μM final drug concentration, cutoff for positive-scoring molecules 3-fold increase, read-out: AK-based Prestwick Library Screening Results, K. pneumoniae (increase in extracellular AK activity)): 0.5
fold induction at 50 µM ([4]; planktonic A. baumannii, 50 μM final drug concentration, cutoff for positive-scoring molecules 3-fold increase, read-out: AK-based Prestwick Library Screening Results, A. baumannii (increase in extracellular AK activity)): 0.7
fold induction at 50 µM ([5]; planktonic P. aeruginosa, 50 μM final drug concentration, cutoff for positive-scoring molecules 3-fold increase, read-out: AK-based Prestwick Library Screening Results, P. aeruginosa (increase in extracellular AK activity)): 0.6
fold induction at 50 µM ([6]; planktonic E. cloacae, 50 μM final drug concentration, cutoff for positive-scoring molecules 3-fold increase, read-out: AK-based Prestwick Library Screening Results, E. cloacae (increase in extracellular AK activity)): 0.8
fold induction at 50 µM ([7]; planktonic E. coli, 50 μM final drug concentration, cutoff for positive-scoring molecules 3-fold increase, read-out: AK-based Prestwick Library Screening Results, E. coli (increase in extracellular AK activity)): 0.6
